# The source made the active and inactive calls. No cut-off for these calls is given here.
# Assays:
# Assay type in all cases: functional, cell-based
# BV-2 [1] = experiment: Anti-neuroinflammatory effect in mouse BV-2 cells assessed as suppression of LPS-mediated IL-6 secretion preincubated for 2 hrs followed by stimulation with LPS for 24 hrs by ELISA assay; details: dose 10-40 µM, time 26.0 hrs
# BV-2 [2] = experiment: Anti-neuroinflammatory effect in mouse BV-2 cells assessed as inhibition of LPS-mediated nuclear translocation of NF-kappaB p65 at 20 to 40 uM preincubated for 2 h followed by stimulation with LPS for 1 h by immunocytochemical analysis; details: dose 20-40 µM, time 3.0 hrs
# BV-2 [3] = experiment: Anti-neuroinflammatory effect in mouse BV-2 cells assessed as decrease in LPS-mediated TLR4 expression at 10 to 40 uM preincubated for 2 hrs followed by stimulation with LPS for 24 hrs by Western blot analysis; details: dose 10-40 µM, time 26.0 hrs
# BV-2 [4] = experiment: Anti-neuroinflammatory effect in mouse BV-2 cells assessed as decrease in LPS-mediated p-p65 expression preincubated for 2 hrs followed by stimulation with LPS for 24 hrs by Western blot analysis; details: dose 10-40 µM, time 26.0 hrs
# BV-2 [5] = experiment: Anti-neuroinflammatory effect in mouse BV-2 cells assessed as suppression of LPS-mediated TNF-alpha secretion preincubated for 2 hrs followed by stimulation with LPS for 24 hrs by ELISA assay; details: dose 10-40 µM, time 26.0 hrs
smiles,measurement,setting,value
Cc1c2c(cc3c1CCOC3=O)CC(C)(C)C2,Activity,BV-2 [1],Dose-dependent-effect; Exhibited Most Potent Effect
same,inhibition,BV-2 [2],Active
same,Activity,BV-2 [3],Active
same,Activity,BV-2 [4],Dose-dependent-effect
same,Activity,BV-2 [5],Dose-dependent-effect; Exhibited Most Potent Effect

# From ChEMBL document CHEMBL6153101, “Chamilactones A and B, Sesquiterpenes from the Endophytic Fungus Chaetomium nigricolor F5” (J Nat Prod, 2025)
